These results are taken from PubChem BioAssay (NCI).

Among the test systems are A498 renal; CAKI-1 renal; EKVX NSCLC; HOP-62 NSCLC; IGROV1 ovarian; LOX IMVI melanoma; OVCAR-8 ovarian; SK-OV-3 ovarian; T-47D breast; SNB-19 CNS.
Assay in all cases: inhibition of tumour cell growth, NCI panel, 48 h

The structures appear in SMILES notation.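 Assay format: 96-well plates, 48-hour exposure. At the TGI there is no net growth.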

As to `CSc1nncc2[nH]c(C)nc12`, the TGI in the assay on A498 renal, with CAKI-1 renal, in the assay on EKVX NSCLC, in the assay with HOP-62 NSCLC, in the assay with IGROV1 ovarian and in the assay on LOX IMVI melanoma was above 100 µM throughout. Further, the TGI in the assay with OVCAR-8 ovarian, with SK-OV-3 ovarian and with T-47D breast was above 100 µM throughout.
In the case of `O=C(NCCCN(CCCCN(CCCNC(=O)C(F)(F)F)CCCc1ccccc1)CCCc1ccccc1)C(F)(F)F`, the TGI in the assay on CAKI-1 renal worked out at 3.69 µM; in the assay on EKVX NSCLC, 4.23 µM; in the assay with IGROV1 ovarian, 3.52 µM; in the assay on LOX IMVI melanoma, 3.89 µM; in the assay with OVCAR-8 ovarian it was 3.77 µM; in the assay on SK-OV-3 ovarian it was 5.6 µM. For the same molecule, the TGI in the assay on SNB-19 CNS was 4.17 µM; in the assay with T-47D breast, 3.84 µM.
Turning to `N#CC1(C#N)C2CCCCC23OC(=N)C1(C#N)C(c1ccccc1)O3` (stereo not given), the TGI with A498 renal was 48.9 µM; in the assay with CAKI-1 renal, 24.5 µM; in the assay with EKVX NSCLC it was 60.6 µM; in the assay with IGROV1 ovarian, 37.2 µM; in the assay with LOX IMVI melanoma it was 45.1 µM; with OVCAR-8 ovarian it was 48.9 µM. In addition, the TGI was above 100 µM with SK-OV-3 ovarian, above 100 µM in the assay with SNB-19 CNS and 57.9 µM in the assay on T-47D breast.
As for `O=C(O)c1cccnc1`, the TGI with CAKI-1 renal, in the assay on EKVX NSCLC, in the assay on HOP-62 NSCLC, with IGROV1 ovarian, in the assay on LOX IMVI melanoma and in the assay on OVCAR-8 ovarian was above 100 µM each time. Besides, the TGI with SNB-19 CNS and with T-47D breast was above 100 µM in each case.
`Cc1ccc(-c2c3c(n(C4OC(CO)C(O)C(O)C4O)c(=S)c2C#N)CC(C)(C)CC3=O)cc1` (stereo not given): the TGI with A498 renal, with CAKI-1 renal, with HOP-62 NSCLC, in the assay with IGROV1 ovarian, in the assay on LOX IMVI melanoma and with OVCAR-8 ovarian was above 100 µM throughout. Besides, the TGI in the assay with SNB-19 CNS and with T-47D breast was above 100 µM each time.
For `COc1ccc(-c2c(C#N)c(O)n(NS(=O)(=O)c3ccc(C)cc3)c(=O)c2C#N)cc1`, the TGI with A498 renal, in the assay on CAKI-1 renal, with EKVX NSCLC, with HOP-62 NSCLC, with IGROV1 ovarian and with LOX IMVI melanoma was above 100 µM in each case. The TGI with OVCAR-8 ovarian, in the assay on SK-OV-3 ovarian and with SNB-19 CNS was above 100 µM throughout.
As to `COc1ccc(N2C(=O)CS(=O)(=O)C2c2cccc(Oc3ccccc3)c2)cc1` (stereo not given), the TGI in the assay with CAKI-1 renal was 19.3 µM; in the assay on EKVX NSCLC, 47.8 µM; in the assay on HOP-62 NSCLC, above 100 µM; with LOX IMVI melanoma it was 29.5 µM; in the assay on OVCAR-8 ovarian, 95.7 µM; with SK-OV-3 ovarian it was above 100 µM. Further, the TGI with SNB-19 CNS and in the assay with T-47D breast was above 100 µM throughout.
Take `C#CCN(CC#C)C(=O)C(=O)c1c[nH]c2ccc(OC)cc12`: the TGI in the assay on A498 renal was 29.5 µM; in the assay with EKVX NSCLC, above 100 µM; in the assay on HOP-62 NSCLC, 31.3 µM; with IGROV1 ovarian, above 100 µM; in the assay on LOX IMVI melanoma, 33.6 µM; with OVCAR-8 ovarian, 60.5 µM. Also, the TGI in the assay with SK-OV-3 ovarian worked out at 36.5 µM; with SNB-19 CNS, 36.1 µM; in the assay with T-47D breast it was 83.5 µM.
For the molecule `COc1ccc(/C=N/n2c(-c3ccccc3)n[nH]c2=O)cc1`, the TGI in the assay with A498 renal, with CAKI-1 renal, in the assay with EKVX NSCLC, with HOP-62 NSCLC, in the assay with OVCAR-8 ovarian and with SK-OV-3 ovarian was above 100 µM throughout. Also, the TGI with SNB-19 CNS and in the assay on T-47D breast was above 100 µM each time.
For `O=P(O)(Cc1ccccc1)c1ccccc1-c1ccccc1`, the TGI in the assay with CAKI-1 renal, with EKVX NSCLC, in the assay on HOP-62 NSCLC, in the assay on IGROV1 ovarian, in the assay with LOX IMVI melanoma and in the assay on OVCAR-8 ovarian was above 100 µM throughout. Besides, the TGI in the assay with SK-OV-3 ovarian, with SNB-19 CNS and in the assay with T-47D breast was above 100 µM each time.
In the case of `Oc1ccc(-c2nc(-c3ccc(F)cc3)c(-c3ccc4ccccc4n3)[nH]2)cc1`, the TGI in the assay on CAKI-1 renal turned out to be 31.3 µM; in the assay on EKVX NSCLC it was 40.7 µM; in the assay on HOP-62 NSCLC, 33.4 µM; in the assay with IGROV1 ovarian it was 26.5 µM; with LOX IMVI melanoma, 27.9 µM; in the assay with OVCAR-8 ovarian, 32 µM. Besides, the TGI in the assay on SK-OV-3 ovarian turned out to be 30.7 µM; in the assay on SNB-19 CNS, 37.1 µM; in the assay with T-47D breast it was 25.1 µM.
Regarding `COC(=O)C1C=CN(N(C)C)C2=C1C(=O)c1c(O)cccc1C2=O` (stereo not given), the TGI with A498 renal turned out to be 7.47 µM; in the assay on CAKI-1 renal, 5.7 µM; in the assay with EKVX NSCLC, 11 µM; in the assay with HOP-62 NSCLC, 8.42 µM; in the assay on IGROV1 ovarian, 5.63 µM; with OVCAR-8 ovarian it was 7.4 µM. The values for the TGI with SK-OV-3 ovarian, in the assay on SNB-19 CNS and with T-47D breast were 22.7 µM, 5.58 µM and 6.45 µM, respectively.
As to `O=S(=O)(O)c1ccc(N=Nc2ccc(N=Nc3c(O)ccc4ccccc34)cc2)cc1`, the TGI in the assay with CAKI-1 renal, in the assay on EKVX NSCLC, with HOP-62 NSCLC, in the assay on IGROV1 ovarian, in the assay on LOX IMVI melanoma and in the assay on OVCAR-8 ovarian was above 100 µM throughout. Besides, the TGI in the assay with SK-OV-3 ovarian, with SNB-19 CNS and in the assay on T-47D breast was above 100 µM throughout.
Turning to `COc1ccc(CCN=C2OCc3ccccc32)cc1OC`, the TGI with A498 renal, in the assay with CAKI-1 renal, in the assay on EKVX NSCLC, with IGROV1 ovarian, in the assay on LOX IMVI melanoma and in the assay with OVCAR-8 ovarian was above 100 µM throughout. The TGI is above 100 µM in the assay on SK-OV-3 ovarian, above 100 µM in the assay with SNB-19 CNS and 86.6 µM with T-47D breast.
In the case of `Cc1c(O)c(C)c2c(C)cn(C(=O)C(C)(C)C)c2c1C`, the TGI with A498 renal was determined as 30 µM; in the assay on EKVX NSCLC, 49.7 µM; with HOP-62 NSCLC it was 31.7 µM; in the assay on IGROV1 ovarian, 42.2 µM; in the assay on LOX IMVI melanoma, 92.2 µM; in the assay on OVCAR-8 ovarian it was 34.7 µM. Also, the TGI in the assay on SK-OV-3 ovarian stood at 42.8 µM; in the assay on SNB-19 CNS, 65.5 µM; in the assay with T-47D breast it was 90 µM.
